How the values were obtained:
rats = assay: conditioned avoidance behavior (lever press to avoid foot shock) in rats; type: in vivo; conditions: Rattus norvegicus, oral, read-out: oral dose that disrupts avoidance behavior (decreases avoidance responses)
Protocol: (§1) Each lever press postpones the shock for 30 seconds. Whenever the animal fails to press the lever once within said period, brief (0.5 sec.) shocks are delivered at 15 second intervals until the animal again presses the lever. Under control conditions the animals press the lever at a moderately steady rate and seldom receive more than five or six shocks during a 25-minute (rats) and up to 4-hour experimental session. Said compounds evaluated for neuroleptic activity, are administered to the animals 30, 90, 210 minutes prior to the experimental session and block the learned conditioned avoidance behavior, manifested by a decrease in avoidance responding with a marked increase in shocks taken by the animal. Both the avoidance responses and failures (shocks received) are recorded separately for evaluation.
(§2) Indicative of the antipsychotic utility of the compounds of this invention, e.g., the compound of example 1, namely 5-(4-methyl-1-piperazinyl)-11H-imidazo[1,2-c][1,3]benzodiazepine disrupts avoidance behavior, e.g. decreases avoidance responses in rats and monkeys at an oral dose of 30 mg/kg or lower.

monkeys = assay: conditioned avoidance behavior (lever press to avoid foot shock) in monkeys; type: in vivo, squirrel monkey; conditions: Primates, oral, read-out: oral dose that disrupts avoidance behavior (decreases avoidance responses)
Protocol: as §1, §2

[1] = target: histamine activation of adenylate cyclase; assay: inhibition of histamine activation of adenylate cyclase in vesicles of guinea pig cerebral cortex; type: biochemical; conditions: 50 micromolar histamine
Protocol: Finally, said antihistaminic properties can be shown in vitro, e.g., according to Chasin et al., J. Neurochem. 22, 1031 (1974). Vesicles from a cell free preparation of guinea pig cerebral cortex are preincubated with ^3 H-adenine to form endogenous ^3 H-adenosine triphosphate. The vesicles are then incubated with 50 micromolar histamine to activate ^3 H-cyclic adenosine monophosphate synthesis in the absence or presence of the test compound at a concentration between 0.01 and 100 micromolar. When said compound is active, it inhibits the histamine activation of adenylate cyclase. The IC50 represents the concentration at which histamine activation is inhibited by 50%.

monkey = assay: extrapyramidal side effects (dyskinesias, dystonias) in the monkey; type: in vivo
α-adrenergic = α-adrenergic blocking activity in vitro; type: biochemical

## CN1CCN(C2=Nc3ccccc3Cc3nccn32)CC1 [example 1, 5-(4-methyl-1-piperazinyl)-11H-imidazo[1,2-c][1,3]benzodiazepine]
rats
  minimal effective dose: ≤ 30 mg/kg
monkeys
  minimal effective dose: ≤ 30 mg/kg
[1]
  IC50: ~1 µM
monkey
  extrapyramidal side effects, e.g. dyskinesias and dystonias: essentially free of extrapyramidal side effects
α-adrenergic
  α-adrenergic blocking activity: only minimal α-adrenergic blocking activity
